PubChem BioAssay AID1189 (EPA DSSTox, 2008)
Calls of active or inactive are those of the source.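 How the source made its calls: active means a tumor-causing dose value with its tumor site reported for any sex and species group of a rodent or other animal cancer study; inconclusive means only studies judged inadequate by the national testing program; inactive means tested in at least one study, none positive.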

Test: DSSTox (CPDBAS) Carcinogenic Potency Database Summary SingleCellCall Results
Settings: animal chronic carcinogenicity bioassays, CPDB summary call
Text: The Carcinogenic Potency Database (CPDB) is a unique and widely used international resource of the results of over 6500 chronic, long-term animal cancer tests on over 1500 chemical substances. The CPDB provides easy access to the bioassay literature, with qualitative and quantitative analyses of both positive and negative experiments that have been published over the past 50 years in the general literature and by the National Cancer Institute/National Toxicology Program. The CPDB standardizes the diverse literature of cancer bioassays that vary widely in protocol, histopathological examination and nomenclature, and in the published author's choices of what information to provide in their papers. Results are reported in the CPDB for tests in rats, mice, hamsters, dogs, and nonhuman primates, and are based on the most positive result among all experiments for each sex-species. The DSSTox CPDBAS (all species) file incorporates data from the CPDB Summary Tables for the full list of over 1500 chemical substances tested in at least one species. A summary SingleCellCall, based on experimental bioassay results of one or more species, is provided for the entire DSSTox CPDBAS file (see Source URL).
An assignment of categorical carcinogenic activity based on minimal evidence for or against activity. […] Associated TD50 values and tumor site details for the relevant species/sex experiment supporting this overall CPDBAS SingleSiteCall are provided in the full CPDBAS DSSTox file (see Comment) and the corresponding CPDBAS Species Bioassay in PubChem.

| SMILES | outcome |
| --- | --- |
| O=C/C=C/O | active |
| NCC1(CC(=O)O)CCCCC1 | active |
| C=CBr | active |
| C/C=C/c1ccc(OC)cc1 | inactive |
| C=CCCl | inactive; active |
| C[C@H](CCc1ccccc1)NC[C@H](O)c1ccc(O)c(C(N)=O)c1 | inactive |
| C[C@@H]1CC2(O[C@@H]2C)C(=O)O[C@@H]2CCN(C)C/C=C(/COC(=O)[C@]1(C)O)C2=O (stereo partly specified) | active; inactive |
| O=C(O)c1cc(=O)[nH]c(=O)[nH]1 | inactive |
| CCCc1c(OCCCCc2nn[nH]n2)ccc(C(C)=O)c1O | active |
| CC1CN1P(=O)(N1CC1C)N1CC1C (stereo unspecified) | active |
| OCC(O)CCl (stereo unspecified) | inactive |
| C=C/C1=C/[C@H](C)[C@](C)(OC(C)=O)C(=O)OCC2=CC[N+]3(C)CC[C@@H](OC1=O)C23[O-] (stereo partly specified) | active; inactive |
| COc1cc2c(c3oc(=O)c4c(c13)CCC4=O)C1C=COC1O2 (stereo unspecified) | active |
| O=NN(CCCl)C(=O)N[C@@H]1[C@@H](O)[C@H](O)[C@@H](CO)O[C@@H]1O | active |
| [O-][Br+2]([O-])O | active |
| CC(/C=C/C=C(\C)C(=O)O[C@@H]1O[C@H](CO[C@@H]2O[C@H](CO)[C@@H](O)[C@H](O)[C@H]2O)[C@@H](O)[C@H](O)[C@H]1O)=C\C=C\C=C(C)\C=C\C=C(/C)C(=O)O[C@@H]1O[C@H](CO[C@@H]2O[C@H](CO)[C@@H](O)[C@H](O)[C@H]2O)[C@@H](O)[C@H](O)[C@H]1O | inactive |
| Cc1cccc(OCC(O)CNC(C)(C)C)c1C (stereo unspecified) | inactive |
| N/C(=N\O)c1ccc([N+](=O)[O-])o1 | inactive |
| CN[C@@H](C)[C@H](O)c1ccccc1 | inactive |
| Cc1cccc(Nc2cc(Cl)nc(SCC(=O)O)n2)c1C | active; inactive |
| CCN(CC)C(=S)[S-].CCN(CC)C(=S)[S-].[Zn+2] | inactive |
| Nc1cc(Cl)c(N)c(Cl)c1 | active; inactive |
| C1COCCO1 | active; inactive |
| CCc1cc(C(N)=S)ccn1 | active; inactive |
| CN(C)c1ccc(C(=C2C=CC(=[N+](C)C)C=C2)c2ccc(N(C)C)cc2)cc1 | active; inactive |
| Cn1c(N)nc2ncc(-c3ccccc3)cc21 | active |

| SMILES | outcome |
| --- | --- |
| CC(O)CNCC(C)O (stereo unspecified) | inactive |
| O=NN1CCOC1 | active; inactive |
| O=S1(=O)N=C(O)c2ccccc21 | inactive |
| COc1cc(O)c2c(=O)c3c(OC)cc4c(c3oc2c1OC)C1C=COC1O4 (stereo unspecified) | active |
| Cc1ccc2ncccc2c1 | inactive |
| c1ccc(Nc2ccc(Nc3ccccc3)cc2)cc1 | inactive |
| C=C(C)[C@H]1Cc2c(ccc3c2O[C@@H]2COc4cc(OC)c(OC)cc4[C@@H]2C3=O)O1 | inactive; active |
| C/C=C/C(=O)Oc1c(C(C)CCCCCC)cc([N+](=O)[O-])cc1[N+](=O)[O-] (stereo unspecified) | inactive |
| [Cl-].[Cl-].[Hg+2] | active |
| CCNC(=O)N(CCN(C)C)N=O | active |
| O=CCCl | active |
| Nc1ccc(Cl)cc1N | active |
| CCCCOC(=O)COc1ccc(Cl)cc1Cl | inactive |
| Clc1ccc(C(c2ccc(Cl)cc2)C(Cl)Cl)cc1 | active |
| C=CCOC(=O)CC(C)C | active |
| Nc1ccc2c(c1)oc1ccccc12 | active |
| CCCN(CCC)N=O | active |
| O=C1OC(=O)c2ccccc21 | inactive |
| [C-]1=CC=CC1.[C-]1=CC=CC1.[Cl-].[Cl-].[Ti+4] | inactive; active |
| CCCCNN | active |
| Nc1ccc(/C=C/c2ccc(N)cc2S(=O)(=O)O)c(S(=O)(=O)O)c1 | inactive; active |
| CCNC(=S)NCC | active |
| c1ccc2[nH]ccc2c1 | inactive |
| O=C1C(O)N=C(c2ccccc2F)c2cc(Cl)ccc2N1CCO (stereo unspecified) | inactive |
| Cc1cccc2ccccc12 | inactive; active |
